Patent US20240245673A1, “Papain-like protease (PLpro) inhibitors” (Pfizer Inc., priority 2022, published 2024)
Where two headings read alike, the source gives them in different places.

Molecular target: SARS-CoV-2 Papain like protease (PLpro) (Severe acute respiratory syndrome coronavirus 2 (2019-nCoV) (SARS-CoV-2), UniProt P0DTD1)
Assay: Papain Like Protease (PLpro) biochemical assay with profluorogenic substrate Z-RLRGG-AMC
Details: SARS-CoV-2 PLpro 6.25 nM, 25 μM Z-RLRGG-AMC substrate, 60 minute reaction

SMILES | IC50 (read-out: IC50) | IC50 (IC50 (μM))
COC(=O)[C@H]1O[C@@H]1C(=O)NNC(=O)CCc1ccccc1C(=O)N[C@H](C)c1cc(-c2cnn(C)c2)nc2ccccc12 [Example 220, methyl(2S,3S)-3-(2-(3-(2-(((R)-1-(2-(1-methyl-1H-pyrazol-4-yl)quinolin-4-yl)ethyl)carbamoyl)phenyl)propanoyl)hydrazine-1-carbonyl)oxirane-2-carboxylate] | 0.002 µM | 
Cc1cc(CNCc2cncn2C)ccc1C(=O)N[C@H](C)c1cc(-c2cnn(C)c2)nc2ccccc12 [Example 221, (R)-2-methyl-4-((((1-methyl-1H-imidazol-5-yl)methyl)amino)methyl)-N-(1-(2-(1-methyl-1H-pyrazol-4-yl)quinolin-4-yl)ethyl)benzamide] | 0.015 µM | 
CO/C=C/C(=O)NNC(=O)CCc1ccccc1C(=O)N[C@H](C)c1cc(-c2cnn(C)c2)nc2ccccc12 [Example 222, (R,E)-2-(3-(2-(3-methoxyacryloyl)hydrazineyl)-3-oxopropyl)-N-(1-(2-(1-methyl-1H-pyrazol-4-yl)quinolin-4-yl)ethyl)benzamide] | 1.98 µM | 
CNC(=O)/C=C/C(=O)NNC(=O)CCc1ccccc1C(=O)N[C@H](C)c1cc(-c2cnn(C)c2)nc2ccccc12 [Example 223, (R,E)-N-(1-(2-(1-methyl-1H-pyrazol-4-yl)quinolin-4-yl)ethyl)-2-(3-(2-(4-(methylamino)-4-oxobut-2-enoyl)hydrazineyl)-3-oxopropyl)benzamide] | 0.058 µM | 
C[C@@H](NC(=O)c1ccccc1CCC(=O)NNC(=O)/C=C/C(N)=O)c1cc(-c2cnn(C)c2)nc2ccccc12 [Example 224, (R,E)-2-(3-(2-(4-amino-4-oxobut-2-enoyl)hydrazineyl)-3-oxopropyl)-N-(1-(2-(1-methyl-1H-pyrazol-4-yl)quinolin-4-yl)ethyl)benzamide] | 0.006 µM | 
COC(=O)/C=C/C(=O)NNC(=O)CCc1ccccc1C(=O)NC1(c2cc(-c3cnn(C)c3)nc3ccccc23)CC1 [Example 225, methyl (E)-4-(2-(3-(2-((1-(2-(1-methyl-1H-pyrazol-4-yl)quinolin-4-yl)cyclopropyl)carbamoyl)phenyl)propanoyl)hydrazineyl)-4-oxobut-2-enoate] | 0.006 µM | 
Cn1cc(-c2cc(C3(NC(=O)c4ccccc4CCC(=O)NNC(=O)/C=C/C(N)=O)CC3)c3ccccc3n2)cn1 [Example 226, (E)-2-(3-(2-(4-amino-4-oxobut-2-enoyl)hydrazineyl)-3-oxopropyl)-N-(1-(2-(1-methyl-1H-pyrazol-4-yl)quinolin-4-yl)cyclopropyl)benzamide] | 0.017 µM | 
CCOC(=O)[C@H]1O[C@@H]1C(=O)NNC(=O)CCc1ccccc1C(=O)N[C@H](C)c1cc(-c2cnn(C)c2)nc2ccccc12 [Example 227, ethyl (2S,3S)-3-(2-(3-(2-(((R)-1-(2-(1-methyl-1H-pyrazol-4-yl)quinolin-4-yl)ethyl)carbamoyl)phenyl)propanoyl)hydrazine-1-carbonyl)oxirane-2-carboxylate] | 0.002 µM | 
COC(=O)c1c[nH]c(-c2cc(C(C)NC(=O)c3cc(N4CCN(C)CC4)ccc3C)c3ccccc3c2)c1 (centres unmarked) [Example 228, methyl 5-(4-(1-(2-methyl-5-(4-methylpiperazin-1-yl)benzamido)ethyl)naphthalen-2-yl)-1H-pyrrole-3-carboxylate] | 0.007 µM | 
Cc1ccc(N2CCN(C)CC2)cc1C(=O)NC(C)c1cc(-c2cc(C(=O)N(C)C)c[nH]2)cc2ccccc12 (centres unmarked) [Example 229, N,N-dimethyl-5-(4-(1-(2-methyl-5-(4-methylpiperazin-1-yl)benzamido)ethyl)naphthalen-2-yl)-1H-pyrrole-3-carboxamide] | 0.006 µM | 
Cc1ccc(N2CCNCC2)cc1C(=O)NC1(c2cc(-c3cnn(C)c3)cc3ccccc23)CC1 [Example 230, 2-methyl-N-(1-(3-(1-methyl-1H-pyrazol-4-yl)naphthalen-1-yl)cyclopropyl)-5-(piperazin-1-yl)benzamide] |  | 0.003 µM
Cc1ccc(N2CCN(C)CC2)cc1C(=O)NC1(c2cc(-c3cnn(C)c3)cc3ccccc23)CC1 [Example 231, 2-methyl-N-(1-(3-(1-methyl-1H-pyrazol-4-yl)naphthalen-1-yl)cyclopropyl)-5-(4-methylpiperazin-1-yl)benzamide] |  | 0.003 µM
CCOC(=O)/C=C/C(=O)NNC(=O)CCc1ccccc1C(=O)N[C@H](C)c1cc(-c2cnn(C)c2)nc2ccccc12 [Example 232, ethyl (R,E)-4-(2-(3-(2-((1-(2-(1-methyl-1H-pyrazol-4-yl)quinolin-4-yl)ethyl)carbamoyl)phenyl)propanoyl)hydrazineyl)-4-oxobut-2-enoate] | 0.003 µM | 
CC(C)OC(=O)/C=C/C(=O)NNC(=O)CCc1ccccc1C(=O)N[C@H](C)c1cc(-c2cnn(C)c2)nc2ccccc12 [Example 233, isopropyl (R,E)-4-(2-(3-(2-((1-(2-(1-methyl-1H-pyrazol-4-yl)quinolin-4-yl)ethyl)carbamoyl)phenyl)propanoyl)hydrazineyl)-4-oxobut-2-enoate] | 0.003 µM | 
C[C@@H](NC(=O)c1ccccc1CCC(=O)NNC(=O)/C=C/C(=O)N(C)C)c1cc(-c2cnn(C)c2)nc2ccccc12 [Example 234, (R,E)-2-(3-(2-(4-(dimethylamino)-4-oxobut-2-enoyl)hydrazineyl)-3-oxopropyl)-N-(1-(2-(1-methyl-1H-pyrazol-4-yl)quinolin-4-yl)ethyl)benzamide] | 0.128 µM | 
Cc1ccc(N2CCCC(N)C2=O)cc1C(=O)N[C@H](C)c1cc(-c2cnn(C)c2)nc2ccccc12 (some centres unmarked) [Example 235] | 0.091 µM | 
Cc1cc(CC(=O)Nc2cscn2)ccc1C(=O)N[C@H](C)c1cc(-c2cnn(C)c2)nc2ccccc12 [Example 236, (R)-2-methyl-N-(1-(2-(1-methyl-1H-pyrazol-4-yl)quinolin-4-yl)ethyl)-4-(2-oxo-2-(thiazol-4-ylamino)ethyl)benzamide] | 0.003 µM | 
Cc1cc(CC(=O)Nc2cncs2)ccc1C(=O)N[C@H](C)c1cc(-c2cnn(C)c2)nc2ccccc12 [Example 237, (R)-2-methyl-N-(1-(2-(1-methyl-1H-pyrazol-4-yl)quinolin-4-yl)ethyl)-4-(2-oxo-2-(thiazol-5-ylamino)ethyl)benzamide] | 0.036 µM | 
Cc1cc(CC(=O)Nc2nccs2)ccc1C(=O)N[C@H](C)c1cc(-c2cnn(C)c2)nc2ccccc12 [Example 238, (R)-2-methyl-N-(1-(2-(1-methyl-1H-pyrazol-4-yl)quinolin-4-yl)ethyl)-4-(2-oxo-2-(thiazol-2-ylamino)ethyl)benzamide] | 0.016 µM | 
Cc1cc(CC(=O)Nc2ncc[nH]2)ccc1C(=O)N[C@H](C)c1cc(-c2cnn(C)c2)nc2ccccc12 [Example 239, (R)-4-(2-((1H-imidazol-2-yl)amino)-2-oxoethyl)-2-methyl-N-(1-(2-(1-methyl-1H-pyrazol-4-yl)quinolin-4-yl)ethyl)benzamide] | 0.007 µM | 
Cc1ccc(N2CCC3(CCCCN3)C2=O)cc1C(=O)N[C@H](C)c1cc(-c2cnn(C)c2)nc2ccccc12 (some centres unmarked) [Example 240] | 0.026 µM | 
Cc1cc(C(C)(C)NCc2cscn2)ccc1C(=O)N[C@H](C)c1cc(-c2cnn(C)c2)nc2ccccc12 [Example 241, (R)-2-methyl-N-(1-(2-(1-methyl-1H-pyrazol-4-yl)quinolin-4-yl)ethyl)-4-(2-((thiazol-4-ylmethyl)amino)propan-2-yl)benzamide] | 0.007 µM | 
Cc1cc(C(=O)NC2(c3ncc[nH]3)CC2)ccc1C(=O)N[C@H](C)c1cc(-c2cnn(C)c2)nc2ccccc12 [Example 242] | 0.006 µM | 
